Measurements: patent US6448442B1, “Contrast media” (Amersham Health AS, priority 1999, dated 2002)
Where “and” joins values, the source holds several entries; their conditions need not be identical. Identical values can stand only once.

Experiment: Viscosity in aqueous solution at 20° C. (Example 82, Tables 1 and 2)
Assay type: physicochemical
Settings: for Viscosity 350 mgI/ml (CALCULATED): calculated for 350 mgI/ml; for Viscosity at 400 mgI/ml (CALCULATED): calculated for 400 mgI/ml
Description: The viscosities in aqueous solution at 20° C. for some further compounds described above were determined and are listed in Table 2. […]

[1] = iodine concentration 370 mgI/mL
[2] = iodine concentration 394 mgI/mL

## O=C(CO)Nc1c(I)c(CO)c(I)c(N(CCO)C(=O)CO)c1I [Example 5, N,N′-Bis(hydroxyacetyl)-N-(2-hydroxyethyl)-3,5-diamino-2,4,6-triiodobenzylalcohol]
  Viscosity 350 mgI/ml (CALCULATED): 6.9 mPas
  Viscosity at 400 mgI/ml (CALCULATED): 10.0 mPas
Concentration 435 mgI/ml
  Viscosity 20° C.: 13 mPas
Concentration 512 mgI/ml
  Viscosity 20° C.: 29 mPas
Iodine concentration 435 mgI/mL
  Viscosity: 13 mPas

## O=C(CO)Nc1c(I)c(CO)c(I)c(N(CC(O)CO)C(=O)CO)c1I (stereo not drawn) [Example 7, N,N′-Bis(hydroxyacetyl)-N-(2,3-dihydroxypropyl)-3,5-diamino-2,4,6-triiodobenzylalcohol]
  Viscosity at 400 mgI/ml (CALCULATED): 11.5 mPas
Concentration 361 mgI/ml
  Viscosity 20° C.: 8 mPas
Iodine concentration 361 mgI/mL
  Viscosity: 8.0 mPas

## CC(O)C(=O)Nc1c(I)c(CO)c(I)c(NC(=O)C(C)O)c1I (stereo not drawn) [Example 8, N,N′-Bis(2-hydroxypropionyl)-3,5-diamino-2,4,6-triiodobenzylalcohol]
  Viscosity at 400 mgI/ml (CALCULATED): 11.0 mPas
Concentration 370 mgI/ml
  Viscosity 20° C.: 8.3 mPas
[1]
  Viscosity: 8.3 mPas

## CC(O)C(=O)Nc1c(I)c(CO)c(I)c(N(CC(O)CO)C(=O)C(C)O)c1I (stereo not drawn) [Example 11, N,N′-Bis(2-hydroxypropionyl)-N-(2,3-dihydroxypropyl)-3,5-diamino-2,4,6-triiodobenzylalcohol]
  Viscosity at 400 mgI/ml (CALCULATED): 15 mPas
Concentration 409 mgI/ml
  Viscosity 20° C.: 17 mPas
Iodine concentration 407 mgI/mL
  Viscosity: 16 mPas

## O=C(Nc1c(I)c(CO)c(I)c(N(CCO)C(=O)C(O)CO)c1I)C(O)CO (stereo not drawn) [Example 13, N,N′-Bis(2,3-dihydroxypropionyl)-N-(2-hydroxyethyl)-3,5-diamino-2,4,6-triiodobenzylalcohol]
  Viscosity at 400 mgI/ml (CALCULATED): 12.2 mPas
Concentration 398 mgI/ml
  Viscosity 20° C.: 12 mPas
Iodine concentration 398 mgI/mL
  Viscosity: 12 mPas

## O=C(C(O)CO)N(CCO)c1c(I)c(CO)c(I)c(N(CCO)C(=O)C(O)CO)c1I (stereo not drawn) [Example 14, N,N′-Bis(2,3-dihydroxypropionyl)-N,N-bis(2-hydroxyethyl)-3,5-diamino-2,4,6-triiodobenzylalcohol]
  Viscosity at 400 mgI/ml (CALCULATED): 15.8 mPas
Concentration 373 mgI/ml
  Viscosity 20° C.: 12.0 mPas
Iodine concentration 373 mgI/mL
  Viscosity: 12 mPas

## O=C(Nc1c(I)c(CO)c(I)c(N(CC(O)CO)C(=O)C(O)CO)c1I)C(O)CO (stereo not drawn) [Example 15, N,N′-Bis(2,3-dihydroxypropionyl)-N-(2,3-dihydroxypropyl)-3,5-diamino-2,4,6-triiodobenzylalcohol]
  Viscosity at 400 mgI/ml (CALCULATED): 17.8 mPas and 14.9 mPas
Concentration 291 mgI/ml
  Viscosity 20° C.: 5.4 mPas
Concentration 384 mgI/ml
  Viscosity 20° C.: 15 mPas
Concentration 394 mgI/ml
  Viscosity 20° C.: 14 mPas
Iodine concentration 348 mgI/mL
  Viscosity: 7.8 mPas
[2]
  Viscosity: 14 mPas
Iodine concentration 446 mgI/mL
  Viscosity: 22 mPas
Iodine concentration 537 mgI/mL
  Viscosity: 75 mPas

## O=C(NCC(O)CO)c1c(I)c(CO)c(I)c(N(CC(O)CO)C(=O)CO)c1I (stereo not drawn) [Example 26, 5-[N′-(2,3-Dihydroxypropyl)-hydroxyacetamido]-3-hydroxymethyl-N-(2,3-dihydroxypropyl)-2,4,6-triiodobenzamide]
  Viscosity 350 mgI/ml (CALCULATED): 9.4 mPas
  Viscosity at 400 mgI/ml (CALCULATED): 15.1 mPas
Concentration 385 mgI/ml
  Viscosity 20° C.: 13 mPas
Iodine concentration 385 mgI/mL
  Viscosity: 13 mPas

## CC(O)C(=O)Nc1c(I)c(CO)c(I)c(C(=O)NCC(O)CO)c1I (stereo not drawn) [Example 27, 5-(2-Hydroxypropionylamino)-3-hydroxymethyl-N-(2,3-dihydroxypropyl)-2,4,6-triiodobenzamide]
  Viscosity at 400 mgI/ml (CALCULATED): 12.5 mPas
Concentration 412 mgI/ml
  Viscosity 20° C.: 14 mPas
Iodine concentration 412 mgI/mL
  Viscosity: 14 mPas

## CC(O)C(=O)N(CCO)c1c(I)c(CO)c(I)c(C(=O)NCC(O)CO)c1I (stereo not drawn) [Example 28, 5-[N′-(2-Hydroxyethyl)-2-hydroxypropionylamino]-3-hydroxymethyl-N-(2,3-dihydroxypropyl)-2,4,6-triiodobenzamide]
  Viscosity 350 mgI/ml (CALCULATED): 9.2 mPas
  Viscosity at 400 mgI/ml (CALCULATED): 14.6 mPas
Concentration 404 mgI/ml
  Viscosity 20° C.: 15 mPas
Iodine concentration 404 mgI/mL
  Viscosity: 15 mPas

## O=C(NCC(O)CO)c1c(I)c(CO)c(I)c(N(CCO)C(=O)C(O)CO)c1I (stereo not drawn) [Example 30, 5-[N′-(2-Hydroxyethyl)-2,3-dihyroxypropionylamino]-3-hydroxymethyl-N-(2,3-dihydroxypropyl)-2,4,6-triiodobenzamide]
  Viscosity 350 mgI/ml (CALCULATED): 13.4 mPas
  Viscosity at 400 mgI/ml (CALCULATED): 23.3 mPas
Concentration 391 mgI/ml
  Viscosity 20° C.: 21 mPas
Iodine concentration 391 mgI/mL
  Viscosity: 21 mPas

## CC(CO)(CO)C(=O)Nc1c(I)c(CO)c(I)c(C(=O)NCC(O)CO)c1I (stereo not drawn) [Example 32, 5-(3-Hydroxy-2-methyl-2-hydroxymethyl-propionylamino)-3-hydroxymethyl-N-(2,3-dihydroxypropyl)-2,4,6-triiodobenzamide]
  Viscosity at 400 mgI/ml (CALCULATED): 17.4 mPas
Concentration 403 mgI/ml
  Viscosity 20° C.: 18 mPas
Iodine concentration 403 mgI/mL
  Viscosity: 18 mPas

## O=C(NCC(O)CO)c1c(I)c(CO)c(I)c(NC(=O)C(CO)(CO)CO)c1I (stereo not drawn) [Example 33, 5-(3-Hydroxy-2,2-dihydroxymethyl-propionylamino)-3-hydroxymethyl-N-(2,3-dihydroxypropyl)-2,46-triiodobenzamide]
  Viscosity at 400 mgI/ml (CALCULATED): 22.9 mPas
Concentration 370 mgI/ml
  Viscosity 20° C.: 16 mPas
[1]
  Viscosity: 16 mPas

## O=C(NC(CO)C(O)CO)c1c(I)c(CO)c(I)c(N(CCO)C(=O)CO)c1I (stereo not drawn) [Example 35, 5-[N′-(2-Hydroxyethyl)-hydroxyacetamido]-3-hydroxymethyl-N-(1,3,4-trihydroxybut-2-yl)-2,4,6-triiodobenzamide]
  Viscosity 350 mgI/ml (CALCULATED): 9.6 mPas
  Viscosity at 400 mgI/ml (CALCULATED): 15.5 mPas
Concentration 394 mgI/ml
  Viscosity 20° C.: 15 mPas
[2]
  Viscosity: 15 mPas

## O=C(NC(CO)C(O)CO)c1c(I)c(CO)c(I)c(N(CC(O)CO)C(=O)CO)c1I (stereo not drawn) [Example 36, 5-[N′-(2,3-Dihydroxypropyl)-hydroxyacetamido]-3-hydroxymethyl-N-(1,3 4-trihydroxybut-2-yl)-2,4.6-triiodobenzamide]
  Viscosity 350 mgI/ml (CALCULATED): 10.6 mPas
  Viscosity at 400 mgI/ml (CALCULATED): 17.7 mPas
Concentration 382 mgI/ml
  Viscosity 20° C.: 15 mPas
Iodine concentration 382 mgI/mL
  Viscosity: 15 mPas

## CC(O)C(=O)Nc1c(I)c(CO)c(I)c(C(=O)NC(CO)C(O)CO)c1I (stereo not drawn) [Example 37, 5-(2-Hydroxypropionylamino)-3-hydroxymethyl-N-(1,3,4-tri-hydroxybut-2-yl)-2,4,6-triiodobenzamide]
  Viscosity at 400 mgI/ml (CALCULATED): 15.6 mPas
Concentration 398 mgI/ml
  Viscosity 20° C.: 16 mPas
Concentration 458 mgI/ml
  Viscosity 20° C.: 30 mPas
Iodine concentration 458 mgI/mL
  Viscosity: 30 mPas

## O=C(NC(CO)C(O)CO)c1c(I)c(CO)c(I)c(N(CCO)C(=O)C(O)CO)c1I (stereo not drawn) [Example 39, 5-[N′-(2-Hydroxyethyl)-2,3-dihydroxypropionylamino]-3-hydroxymethyl-N-(1,3,4-trihydroxybut-2-yl)-2,4,6-triiodobenzamide]
  Viscosity 350 mgI/ml (CALCULATED): 12.0 mPas
  Viscosity at 400 mgI/ml (CALCULATED): 20.4 mPas
Concentration 372 mgI/ml
  Viscosity 20° C.: 15 mPas
Iodine concentration 372 mgI/mL
  Viscosity: 15 mPas

## O=C(c1c(I)c(CO)c(I)c(N(CCO)C(=O)CO)c1I)N(CCO)CCO [Example 41, 5-[N′-(2-Hydroxyethyl)-hydroxyacetamido]-3-hydroxymethyl-N,N-bis(2-hydroxyethyl)-2,4,6-triiodobenzamide]
  Viscosity at 400 mgI/ml (CALCULATED): 12.0 mPas
Concentration 508 mgI/ml
  Viscosity 20° C.: 40 mPas

## O=C(Nc1c(I)c(CO)c(I)c(C(=O)N(CCO)CCO)c1I)C(O)CO (stereo not drawn) [Example 42, 5-(2,3-Dihydroxypropionylamino)-3-hydroxymethyl-N,N-bis(2-hydroxyethyl)-2,4,6-triiodobenzamide]
  Viscosity at 400 mgI/ml (CALCULATED): 12.8 mPas
Concentration 488 mgI/ml
  Viscosity 20° C.: 34 mPas
